Laboratory results taken from patent publication US20200131196A1 (Mount Tam Therapeutics, Inc., priority 2017, published 2020).

Assays:
G-402 = experiment: OncoPanel cell proliferation assay, G-402; type: cell-based, human
Experimental: (§1) Cells were grown in RPMI 1640, 10% FBS, 2 mM L-alanyl-L-glutamine, 1 mM Na pyruvate, or a special medium. Cells were seeded into 384-well plates and incubated in a humidified atmosphere of 5% CO2 at 37° C. Compounds were added the day following cell seeding. At the same time, a time zero untreated cell plate was generated. After a 3-day incubation period, cells were fixed and stained to allow fluorescence imaging of nuclei. Compounds (1 mM stock solutions) were serially diluted in half-log steps from the highest test concentration ([…]), and assayed over 10 concentrations with a maximum assay concentration of 0.1% DMSO. Automated fluorescence microscopy was carried out using a Molecular Devices ImageXpress Micro XL high-content imager, and images were collected with a 4× objective. 16-bit TIFF images were acquired and analyzed with MetaXpress 5.1.0.41 software.
(§2) Cell proliferation was measured by the fluorescence intensity of an incorporated nuclear dye. The output is referred to as the relative cell count, where the measured nuclear intensity is transformed to percent of control (POC) using the following formula: […]
(§3) Cellular response parameters were calculated using nonlinear regression to a sigmoidal single-site dose response model:
(§4) EC50 is the test compound concentration at the curve inflection point or half the effective response (parameter C of the fitted curve solution). GI50 is the concentration needed to reduce the observed growth by half (midway between the curve maximum and the time zero value). “Cell Count Activity Area” is an estimate of the integrated area above the curve (Barretina, et al. The Cancer Cell Line Encyclopedia enables predictive modelling of anticancer drug sensitivity. Nature 483: 603-607). […] In rare instances, values <0 or >10 may be observed. […] Curve-fitting, calculations, and report generation was performed using a custom data reduction engine and MathIQ based software (AIM).

Hs 729 = experiment: OncoPanel cell proliferation assay, Hs 729; type: cell-based, human
Experimental: as §1, §2, §3, §4

SK-NEP-1 = experiment: OncoPanel cell proliferation assay, SK-NEP-1
Experimental: Cells were seeded into 384-well plates and incubated in a humidified atmosphere of 5% CO2 at 37° C. Compounds were added the day following cell seeding. At the same time, a time zero untreated cell plate was generated. After a 3-day incubation period, cells were fixed and stained to allow fluorescence imaging of nuclei. Compounds (1 mM stock solutions) were serially diluted in half-log steps from the highest test concentration (1 micromol), and assayed over 10 concentrations with a maximum assay concentration of 0.1% DMSO. Automated fluorescence microscopy was carried out using a Molecular Devices ImageXpress Micro XL high-content imager, and images were collected with a 4× objective. 16-bit TIFF images were acquired and analyzed with MetaXpress 5.1.0.41 software.

DMS114 = experiment: OncoPanel cell proliferation assay, DMS114; type: cell-based, human
Experimental: as §1, with “Cells” for “Cells were grown in RPMI 1640, 10% FBS, 2 mM L-alanyl-L-glutamine, 1 mM Na pyruvate, or a special medium. Cells”
as §2, §3
GI50 is the concentration needed to reduce the observed growth by half (midway between the curve maximum and the time zero value). […] In rare instances, values <0 or >10 may be observed. […] Curve-fitting, calculations, and report generation was performed using a custom data reduction engine and MathIQ based software (AIM).

A101D = experiment: OncoPanel cell proliferation assay, A101D; type: cell-based, human
Experimental: as §1, §2, §3, §4

TF-1 = experiment: OncoPanel cell proliferation assay, TF-1; type: cell-based, human
Experimental: as §1, §2, §3, §4

[1] = Homo sapiens, read-out: Cell Count EC50
[2] = Homo sapiens, read-out: Cell Count GI50
[3] = Homo sapiens, read-out: Cell Count IC50

SMILES: CO[C@H]1C[C@@H]2CC[C@@H](C)[C@@](O)(O2)C(=O)C(=O)N2CCCC[C@H]2C(=O)O[C@H]([C@H](C)C[C@H]2C[C@H]3C[C@@H]2C[C@@H]3O)CC(=O)[C@H](C)/C=C(\C)[C@@H](O)[C@@H](OC)C(=O)[C@H](C)C[C@H](C)/C=C/C=C/C=C/1C [Formula II, C37-[(1R,2S,4R,5S)-5-hyhroxybicyclo[2.2.1]heptane] rapamycin]
- Cell Count Activity Area (G-402): 4.75
- Relative cell count (%) Mean (G-402; 1.00E+00 microM): 25.8%
- Relative cell count (%) Mean (G-402; 1.00E-01 microM): 28.4%
- Relative cell count (%) Mean (G-402; 1.00E-02 microM): 40.5%
- Relative cell count (%) Mean (G-402; 1.00E-03 microM): 63.7%
- Relative cell count (%) Mean (G-402; 1.01E-04 microM): 100.0%
- Relative cell count (%) Mean (G-402; 3.16E-01 microM): 27.5%
- Relative cell count (%) Mean (G-402; 3.17E-02 microM): 36.6%
- Relative cell count (%) Mean (G-402; 3.17E-03 microM): 52.6%
- Relative cell count (%) Mean (G-402; 3.18E-04 microM): 86.8%
- Relative cell count (%) Mean (G-402; 3.18E-05 microM): 97.8%
- EC50 (G-402; [1]): 1.13 nM
- GI50 (G-402; [2]): 1.51 nM
- IC50 (G-402; [3]): 2.87 nM
- Cell Count Activity Area (Hs 729): 0.91
- Relative cell count (%) Mean (Hs 729; 1.00E+00 microM): 73.3%
- Relative cell count (%) Mean (Hs 729; 1.00E-01 microM): 81.0%
- Relative cell count (%) Mean (Hs 729; 1.00E-02 microM): 91.1%
- Relative cell count (%) Mean (Hs 729; 1.00E-03 microM): 97.1%
- Relative cell count (%) Mean (Hs 729; 1.01E-04 microM): 105.0%
- Relative cell count (%) Mean (Hs 729; 3.16E-01 microM): 74.8%
- Relative cell count (%) Mean (Hs 729; 3.17E-02 microM): 79.3%
- Relative cell count (%) Mean (Hs 729; 3.17E-03 microM): 98.0%
- Relative cell count (%) Mean (Hs 729; 3.18E-04 microM): 93.3%
- Relative cell count (%) Mean (Hs 729; 3.18E-05 microM): 93.2%
- EC50 (Hs 729; [1]): > 1000 nM
- GI50 (Hs 729; [2]): 101 nM
- IC50 (Hs 729; [3]): > 1000 nM
- EC50 (SK-NEP-1; Homo sapiens, SK-NEP-1, read-out: Cell Count EC50): 2.48 nM
- GI50 (SK-NEP-1; Homo sapiens, SK-NEP-1, read-out: Cell Count GI50): 3.27 nM
- IC50 (SK-NEP-1; Homo sapiens, SK-NEP-1, read-out: Cell Count IC50): 18.1 nM
- Cell Count Activity Area (SK-NEP-1; SK-NEP-1): 3.36
- Relative cell count (%) Mean (SK-NEP-1; SK-NEP-1, 1.00E+00 microM): 41.8%
- Relative cell count (%) Mean (SK-NEP-1; SK-NEP-1, 1.00E-01 microM): 45.4%
- Relative cell count (%) Mean (SK-NEP-1; SK-NEP-1, 1.00E-02 microM): 59.8%
- Relative cell count (%) Mean (SK-NEP-1; SK-NEP-1, 1.00E-03 microM): 86.5%
- Relative cell count (%) Mean (SK-NEP-1; SK-NEP-1, 1.01E-04 microM): 106.4%
- Relative cell count (%) Mean (SK-NEP-1; SK-NEP-1, 3.16E-01 microM): 44.3%
- Relative cell count (%) Mean (SK-NEP-1; SK-NEP-1, 3.17E-02 microM): 49.3%
- Relative cell count (%) Mean (SK-NEP-1; SK-NEP-1, 3.17E-03 microM): 67.1%
- Relative cell count (%) Mean (SK-NEP-1; SK-NEP-1, 3.18E-04 microM): 94.6%
- Relative cell count (%) Mean (SK-NEP-1; SK-NEP-1, 3.18E-05 microM): 99.0%
- Cell Count Activity Area (DMS114): 3.40
- Relative cell count (%) Mean (DMS114; 1.00E+00 microM): 43.1%
- Relative cell count (%) Mean (DMS114; 1.00E-01 microM): 50.1%
- Relative cell count (%) Mean (DMS114; 1.00E-02 microM): 62.2%
- Relative cell count (%) Mean (DMS114; 1.00E-03 microM): 74.7%
- Relative cell count (%) Mean (DMS114; 1.01E-04 microM): 102.9%
- Relative cell count (%) Mean (DMS114; 3.16E-01 microM): 46.7%
- Relative cell count (%) Mean (DMS114; 3.17E-02 microM): 52.5%
- Relative cell count (%) Mean (DMS114; 3.17E-03 microM): 63.9%
- Relative cell count (%) Mean (DMS114; 3.18E-04 microM): 83.4%
- Relative cell count (%) Mean (DMS114; 3.18E-05 microM): 99.7%
- EC50 (DMS114; Homo sapiens, DMS-114, read-out: Cell Count EC50): 1.34 nM
- GI50 (DMS114; Homo sapiens, DMS-114, read-out: Cell Count GI50): 0.611 nM
- IC50 (DMS114; Homo sapiens, DMS-114, read-out: Cell Count IC50): 33.1 nM
- Cell Count Activity Area (A101D): 3.79
- Relative cell count (%) Mean (A101D; 1.00E+00 microM): 52.5%
- Relative cell count (%) Mean (A101D; 1.00E-01 microM): 54.3%
- Relative cell count (%) Mean (A101D; 1.00E-02 microM): 62.0%
- Relative cell count (%) Mean (A101D; 1.00E-03 microM): 75.1%
- Relative cell count (%) Mean (A101D; 1.01E-04 microM): 96.5%
- Relative cell count (%) Mean (A101D; 3.16E-01 microM): 59.6%
- Relative cell count (%) Mean (A101D; 3.17E-02 microM): 56.2%
- Relative cell count (%) Mean (A101D; 3.17E-03 microM): 71.5%
- Relative cell count (%) Mean (A101D; 3.18E-04 microM): 82.7%
- Relative cell count (%) Mean (A101D; 3.18E-05 microM): 100.8%
- EC50 (A101D; [1]): 0.366 nM
- GI50 (A101D; [2]): 1.36 nM
- IC50 (A101D; [3]): 56.2 nM
- Cell Count Activity Area (TF-1): 1.08
- Relative cell count (%) Mean (TF-1; 1.00E+00 microM): 80.8%
- Relative cell count (%) Mean (TF-1; 1.00E-01 microM): 80.1%
- Relative cell count (%) Mean (TF-1; 1.00E-02 microM): 82.8%
- Relative cell count (%) Mean (TF-1; 1.00E-03 microM): 88.7%
- Relative cell count (%) Mean (TF-1; 1.01E-04 microM): 93.1%
- Relative cell count (%) Mean (TF-1; 3.16E-01 microM): 79.6%
- Relative cell count (%) Mean (TF-1; 3.17E-02 microM): 81.7%
- Relative cell count (%) Mean (TF-1; 3.17E-03 microM): 80.8%
- Relative cell count (%) Mean (TF-1; 3.18E-04 microM): 89.0%
- Relative cell count (%) Mean (TF-1; 3.18E-05 microM): 94.4%
- EC50 (TF-1; [1]): > 1000 nM
- GI50 (TF-1; [2]): > 1000 nM
- IC50 (TF-1; [3]): > 1000 nM
